We go through five compounds from patent US20160355465A1, “NOVEL MODIFIED CURCUMINS AND THEIR USES” (THE RESEARCH FOUNDATION OF STATE UNIVERSITY OF NEW YORK, priority 2011, published 2016).

The target in series [1] is T1, MMP-1 (Homo sapiens, UniProt P03956).
T1 sequence (P03956 100-469): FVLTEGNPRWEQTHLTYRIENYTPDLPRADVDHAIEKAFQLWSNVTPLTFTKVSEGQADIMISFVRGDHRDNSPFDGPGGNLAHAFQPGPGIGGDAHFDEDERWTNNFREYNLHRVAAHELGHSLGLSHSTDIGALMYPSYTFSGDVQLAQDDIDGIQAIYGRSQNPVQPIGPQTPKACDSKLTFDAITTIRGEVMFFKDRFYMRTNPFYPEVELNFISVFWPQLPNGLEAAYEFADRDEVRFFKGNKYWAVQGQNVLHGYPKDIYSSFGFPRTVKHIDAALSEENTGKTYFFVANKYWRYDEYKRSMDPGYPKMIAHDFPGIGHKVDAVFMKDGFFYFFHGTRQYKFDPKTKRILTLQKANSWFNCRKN
As to the kind of experiment: fluorimetric assay of MMP activity. As to conditions: synthetic fluorescent peptide substrate Mca-Lys-Pro-Leu-Gly-Leu-Dpa-Ala-Arg-NH2. In kind it is biochemical.

Series [2] concerns the target MMP-8 (Homo sapiens, UniProt P22894). Nature of the series: fluorimetric assay of MMP activity. In kind it is biochemical. As to conditions: synthetic fluorescent peptide substrate Mca-Lys-Pro-Leu-Gly-Leu-Dpa-Ala-Arg-NH2.
Series [3] has as its target MMP-13 (Homo sapiens, UniProt P45452). Nature of the series: fluorimetric assay of MMP activity. Type of series: biochemical. The following applies: synthetic fluorescent peptide substrate Mca-Lys-Pro-Leu-Gly-Leu-Dpa-Ala-Arg-NH2.
The target in series [4] is T2, MMP-2 (Homo sapiens, UniProt P08253).
T2 sequence (P08253 110-660): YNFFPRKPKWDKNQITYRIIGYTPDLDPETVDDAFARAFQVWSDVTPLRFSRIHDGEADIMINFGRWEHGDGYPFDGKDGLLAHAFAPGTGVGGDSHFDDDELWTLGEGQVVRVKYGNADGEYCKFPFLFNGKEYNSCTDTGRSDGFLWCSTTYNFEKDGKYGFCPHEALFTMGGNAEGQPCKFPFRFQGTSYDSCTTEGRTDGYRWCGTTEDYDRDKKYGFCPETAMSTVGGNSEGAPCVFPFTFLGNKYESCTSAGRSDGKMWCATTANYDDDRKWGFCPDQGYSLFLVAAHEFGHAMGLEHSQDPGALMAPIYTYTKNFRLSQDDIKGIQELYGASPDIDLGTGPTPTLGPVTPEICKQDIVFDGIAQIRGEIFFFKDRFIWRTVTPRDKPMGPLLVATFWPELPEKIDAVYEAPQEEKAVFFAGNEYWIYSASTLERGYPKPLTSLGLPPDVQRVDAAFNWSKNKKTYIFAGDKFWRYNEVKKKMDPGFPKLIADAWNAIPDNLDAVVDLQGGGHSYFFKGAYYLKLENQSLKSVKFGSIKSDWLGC
Nature of the series: fluorimetric assay of MMP activity. In kind it is biochemical.

Series [5] has as its target MMP-9 (Homo sapiens, UniProt P14780). As to the kind of experiment: fluorimetric assay of MMP activity. Type of series: biochemical. As to conditions: synthetic fluorescent peptide substrate Mca-Lys-Pro-Leu-Gly-Leu-Dpa-Ala-Arg-NH2.
Series [6] concerns the target MMP-3 (Homo sapiens, UniProt P08254). As to the kind of experiment: fluorimetric assay of MMP activity. In kind it is biochemical. As to conditions: synthetic fluorescent peptide substrate Mca-Lys-Pro-Leu-Gly-Leu-Dpa-Ala-Arg-NH2.
Series [7] concerns the target T3, MMP-7 (Homo sapiens, UniProt P09237).
T3 sequence (P09237 95-267): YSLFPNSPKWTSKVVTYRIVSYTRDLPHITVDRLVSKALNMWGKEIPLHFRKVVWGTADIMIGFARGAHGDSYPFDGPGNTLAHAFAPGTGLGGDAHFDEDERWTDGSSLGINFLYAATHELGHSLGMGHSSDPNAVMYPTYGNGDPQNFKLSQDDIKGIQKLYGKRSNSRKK
As to the kind of experiment: fluorimetric assay of MMP activity. Type of series: biochemical. As to conditions: synthetic fluorescent peptide substrate Mca-Lys-Pro-Leu-Gly-Leu-Dpa-Ala-Arg-NH2.

The target in series [8] is MMP-12 (Homo sapiens, UniProt P39900). As to the kind of experiment: fluorimetric assay of MMP activity. Type of series: biochemical. As to conditions: synthetic fluorescent peptide substrate Mca-Lys-Pro-Leu-Gly-Leu-Dpa-Ala-Arg-NH2.
Sequence of MMP-12 (P39900 106-470): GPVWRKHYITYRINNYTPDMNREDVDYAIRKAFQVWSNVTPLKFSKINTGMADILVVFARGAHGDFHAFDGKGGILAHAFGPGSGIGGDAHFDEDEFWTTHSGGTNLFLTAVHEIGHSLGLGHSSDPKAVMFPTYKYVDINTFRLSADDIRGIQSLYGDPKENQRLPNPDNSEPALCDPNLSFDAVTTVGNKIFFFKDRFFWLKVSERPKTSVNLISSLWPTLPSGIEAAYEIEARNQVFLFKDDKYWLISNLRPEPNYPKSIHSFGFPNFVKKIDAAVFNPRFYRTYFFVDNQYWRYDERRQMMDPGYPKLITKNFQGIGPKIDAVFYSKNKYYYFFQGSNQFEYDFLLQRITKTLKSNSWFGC
In series [9] the target is MMP-14 (Homo sapiens, UniProt P50281). As to the kind of experiment: fluorimetric assay of MMP activity. Type of series: biochemical. The following applies: synthetic fluorescent peptide substrate Mca-Lys-Pro-Leu-Gly-Leu-Dpa-Ala-Arg-NH2.
Series [10] has as its system collagen in wound tissue. Nature of the series: collagen fractions (hydroxyproline) in wound tissue of diabetic rats. Type of series: in vivo, rat. As to conditions: wound tissue day 6. An excerpt:
Biochemical measurements were made on wound tissue 6 days after creating the standardized 6 mm diameter wounds in the various groups of rats including: (1) non-diabetic controls (NDC); (2) Diabetic (DM) rats treated topically with 0.25% curcumin; (3) DM treated with 1% curcumin; (4) DM treated with 0.25% Compound 4, and (5) DM rats treated with 1% Compound 4. The wound tissues from these five different groups were then hydrolyzed (after extraction; see below) to degrade the collagen to individual amino acids, and the amino acid unique to collagen, hydroxyproline, was measured by a commercial colorimetric assay. Prior to hydrolysis, the wound tissues were extracted (at 4° C. to maintain the triple-helical conformation of the collagen molecules) to obtain first the salt-soluble fraction, then the acid-soluble fraction, leaving the insoluble fraction.

The nature of series [11]: blood glucose of the rats of the collagen experiment. Type of series: in vivo, rat. As to conditions: diabetic rats.
The test system of series [12] is MMPs 1, 2, 3, 7, 8, 9, 12, 13 and 14. As to the kind of experiment: activity against a battery of MMPs (summary in words). Type of series: biochemical, human.
A short description of series [13]: toxicity / tolerability in diabetic rats. Type of series: in vivo. The following applies: at elevated levels. As to the method:
The following five experimental groups (n=3 rats per group) were established: Non-diabetic control rats (NDC) treated by daily application of white petrolatum jelly (“vehicle”) for 7 days, diabetic rats (D group) treated daily with vehicle alone; diabetics treated by daily topical application of either a 1% (D+1%) or a 3% (D+3%) suspension of Compound 4 in the vehicle; and diabetics treated systemically by daily oral intubation of a 1 ml suspension of Compound 4 (in carboxymethylcellulose) at a dose of 30 mg/kg over the 7-day treatment protocol (D+30 mg/kg). At the end of this time period, the circular wounds were clinically assessed by measuring diameter of the wound in millimeters, blood samples were collected, the rats were sacrificed, and skin samples collected for histological/histochemical, and biochemical assessment as described below. • 1) On day 7 after inducing wound healing, the animals were anesthetized and blood samples collected for blood glucose (one Touch Ultra Glucometer; Johnson & Johnson, New Brunswick, N.J.) and Hemoglobin A1c (A1c Now+; Bayer Health Care, Sunnyvale, Calif.) measurements. • 2) Photographs were taken for clinical observations to assess wound closure. The % reduction of the wound surface was calculated by measuring the diameter (in millimeters) of each wound before and after the treatment protocol. • 3) Wound tissues on day 7 were excised from 3 sites per rat and pooled for biochemical analysis. […] The supernates were then dialyzed against the Tris-HCl, NaCl, CaCl2 buffer, and the proteinases partially purified by ammonium sulfate precipitation and examined for levels of MMP-2 (72 kD gelatinse) and MMP-9 (92 kD gelatinase) by gelatin zymography using denatured type I collagen (gelatin) as the substrate (6). • 4) The remaining wounds were assessed histologically & histochemically by Dr. Steve McClain (McClain Labs, Smithtown, N.Y.) as follows: Biopsies of each wound site were taken and included both the wound tissue and surrounding non-wounded tissue. […]

Setting [14] is: synthetic fluorescent peptide substrate Mca-Lys-Pro-Leu-Gly-Leu-Dpa-Ala-Arg-NH2, read-out: IC50 MMP-2.

Like-named read-outs stand apart in the source and are kept apart here.

Sequence of MMP-8 (P22894 101-467): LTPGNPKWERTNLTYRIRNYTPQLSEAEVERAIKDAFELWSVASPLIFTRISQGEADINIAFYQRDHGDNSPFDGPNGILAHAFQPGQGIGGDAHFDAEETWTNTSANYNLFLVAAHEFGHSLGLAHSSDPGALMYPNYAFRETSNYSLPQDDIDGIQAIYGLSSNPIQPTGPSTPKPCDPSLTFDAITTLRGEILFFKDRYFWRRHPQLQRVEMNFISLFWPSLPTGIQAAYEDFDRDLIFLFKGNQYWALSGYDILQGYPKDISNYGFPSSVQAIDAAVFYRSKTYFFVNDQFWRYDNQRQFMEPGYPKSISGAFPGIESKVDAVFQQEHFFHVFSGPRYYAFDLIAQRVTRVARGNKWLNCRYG
Sequence of MMP-9 (P14780 94-707): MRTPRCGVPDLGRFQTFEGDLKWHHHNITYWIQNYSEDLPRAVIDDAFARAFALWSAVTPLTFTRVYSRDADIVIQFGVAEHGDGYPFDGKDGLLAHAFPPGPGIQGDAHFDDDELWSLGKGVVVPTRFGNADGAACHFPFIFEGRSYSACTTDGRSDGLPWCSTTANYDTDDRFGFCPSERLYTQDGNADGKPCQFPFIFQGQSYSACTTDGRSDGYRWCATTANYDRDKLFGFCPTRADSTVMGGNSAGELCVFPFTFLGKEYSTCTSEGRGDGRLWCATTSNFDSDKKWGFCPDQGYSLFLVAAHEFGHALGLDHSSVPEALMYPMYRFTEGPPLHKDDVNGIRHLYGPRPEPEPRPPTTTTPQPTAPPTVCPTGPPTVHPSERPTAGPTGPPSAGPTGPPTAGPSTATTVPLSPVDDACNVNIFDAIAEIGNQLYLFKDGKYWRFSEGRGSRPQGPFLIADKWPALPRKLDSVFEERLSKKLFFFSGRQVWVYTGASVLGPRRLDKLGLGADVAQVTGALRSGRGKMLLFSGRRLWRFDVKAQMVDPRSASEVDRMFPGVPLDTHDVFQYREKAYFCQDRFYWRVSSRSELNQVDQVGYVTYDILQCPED
Sequence of MMP-3 (P08254 100-477): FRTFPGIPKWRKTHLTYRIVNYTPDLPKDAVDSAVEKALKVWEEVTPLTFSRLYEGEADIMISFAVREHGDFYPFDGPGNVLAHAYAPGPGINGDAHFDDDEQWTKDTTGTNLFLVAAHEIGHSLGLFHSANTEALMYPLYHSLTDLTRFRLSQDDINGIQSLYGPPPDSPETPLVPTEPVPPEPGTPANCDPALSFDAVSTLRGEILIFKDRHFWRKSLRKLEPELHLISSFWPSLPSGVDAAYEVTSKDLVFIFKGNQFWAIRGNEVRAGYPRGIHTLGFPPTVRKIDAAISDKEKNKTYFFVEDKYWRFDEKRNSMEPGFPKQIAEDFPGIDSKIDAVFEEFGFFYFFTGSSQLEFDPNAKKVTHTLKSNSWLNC

In the case of `c1cnc2c(c1)ccc1cccnc12` [1,10-Phen, 1,10-phenanthroline, reference compound], the IC50 came to 42 ± 1.1 µM in series [1]; 31.3 ± 0.5 µM in [2]; 50 ± 10.4 µM in series [3]; 73.8 ± 1 µM in series [4] (setting [14]); 45 ± 12.6 µM in series [5]; 77 ± 3.2 µM in [6]. The IC50 in [7] came to 197 ± 8.8 µM; in series [8] it was 29.5 ± 1.3 µM; in series [9] it was 43.8 ± 4.2 µM.

For the compound `COc1cc(/C=C/C(=O)CC(=O)/C=C/c2ccc(O)c(OC)c2)ccc1O` [Compound 1, 1,7-Bis(4-hydroxy-3-methoxyphenyl)hepta-1E,6E-dien-3,5-dione, reference compound], the IC50 amounted to 5 ± 0.7 µM in [4]; 30 ± 2.9 µM in [5]; 4.7 ± 0.8 µM in [6]; 51.8 ± 2.5 µM in [7]; 2.6 ± 0.2 µM in series [8]; 29.5 ± 3.2 µM in series [9]. For the same compound, the “Collagen Fractions (%) Acid-soluble” value is 48.3% in [10] (0.25% topical) and 50.9% in [10] (1% topical). Also, the “Collagen Fractions (%) Insoluble” value in series [10] (0.25% topical) was 36.4%; in series [10] (1% topical), 27.1%. Moreover, the “Collagen Fractions (%) Salt-soluble” value in series [10] (0.25% topical) was 15.3%; in [10] (1% topical), 22.0%. Further, the “Blood Glucose” value in [11] (0.25% topical) worked out at 569 mg/dL; in series [11] (1% topical), 540 mg/dL.

In the case of `COC(=O)C(C(=O)/C=C/c1ccc(O)c(OC)c1)C(=O)/C=C/c1ccc(O)c(OC)c1` [Compound 2, 1,7-Bis(4-hydroxy-3-methoxyphenyl)-4-methoxycarbonylhepta-1E,6E-dien-3,5-dione], the IC50 in [1] came to 74 ± 3.5 µM; in series [2], 30.8 ± 1.5 µM; in [4] (setting [14]) it was 25.3 ± 1.3 µM; in series [5] it was 55 ± 17.3 µM; in series [6] it was 32.5 ± 2.8 µM; in series [7] it was 48.8 ± 0.5 µM. Moreover, the IC50 in series [8] was determined as 27.8 ± 1.7 µM; in series [9], 48.5 ± 4.3 µM.

For `COc1cc(/C=C/C(=O)C(C(=O)/C=C/c2ccc(O)c(OC)c2)C(=O)Nc2ccccc2)ccc1O` [Compound 3, 1,7-Bis(4-hydroxy-3-methoxyphenyl)-4-N-phenylaminocarbonylhepta-1E, 6E-dien-3,5-dione], the IC50 in series [1] was 68 ± 3.2 µM; in [2], 2.5 ± 0.3 µM; in [4] (setting [14]), 6.3 ± 0.9 µM; in series [5], 8.7 ± 0.7 µM; in [6] it was 5.3 ± 0.7 µM; in series [7], 21.5 ± 1 µM. The IC50 in series [8] amounted to 4.5 ± 0.5 µM; in series [9], 41.3 ± 4.9 µM. Moreover, in series [12], the “anti-MMP activity (in words)” value was “highly active”. For the same compound, the toxicity result in series [13] is “some toxicity”.

Regarding `COC(=O)C(C(=O)/C=C/c1ccc(O)cc1)C(=O)/C=C/c1ccc(O)cc1` [Compound 5, 1,7-Bis(4-hydroxyphenyl)-4-methoxycarbonylhepta-1E,6E-dien-3,5-dione], the IC50 in [1] came to 76.3 ± 6.5 µM; in series [2], 20 ± 2 µM; in series [3] it was 26.7 ± 1.7 µM; in [4] (setting [14]), 23.8 ± 0.9 µM; in series [5], 43.3 ± 4.4 µM; in series [6] it was 28.3 ± 1 µM. Further, the IC50 in [7] was 57.5 ± 4.6 µM; in [8] it was 5.3 ± 0.3 µM; in series [9], 40 ± 8.4 µM.

In general, IC50 refers to the concentration that inhibits the measured activity by half.
